Assay results published in PMC3559838 (PLoS ONE, 2013).
Read-outs that look alike come from different tables or passages of the source.

Columns and labels:
[1] = Pharmacokinetics after 30 min i.v. infusion, phase I trial in hepatocellular carcinoma patients; type: in vivo, human; conditions: for Cmax / AUC(0-t) / Tmax / clearance / half-life / Vd: human, iv, plasma; for Cmax: mean ± SD; for AUC(0-t): read-out: AUC0–24 h; for clearance: read-out: CL (clearance) (converted); for half-life: read-out: T1/2 (half-life at the elimination phase) (converted); for Vd: read-out: Vz (volume of distribution)
Procedure: This multicentre phase I trial of belinostat was done in Hong Kong and Singapore. All patients provided written informed consent according to Good Clinical Practice guidelines, and the protocol was approved by the institutional review boards of Prince of Wales Hospital, Hong Kong and National University Hospital, Singapore.
Venous blood samples had been collected in heparinized tubes. Collected blood samples were centrifuged at 3000 g for 10–15 min and the plasma (supernatant) was separated from the cell pellet and stored in plain tubes at –80°C till analysis. […] Briefly, vorinostat-G was used as the internal standard for belinostat-G. The mass spectrometer was operated in positive ion mode with the optimal mass transitions of belinostat-G: m/z 495>93 and vorinostat-G: m/z 441>232, respectively. The analytical method was well validated with good linearity (coefficient of determination, r^2≥0.999) in the range of 1–100 µM for belinostat-G.
Pharmacokinetic parameters were estimated based on non-compartmental analysis model using WinNonlin software version 5.3 (Pharmsight, Sunnyvale, CA, USA). […] One way analysis of variance (ANOVA) was used to determine the significance among the genotypes with Tukey posthoc tests for adjustment for comparison between individual groups. A value of p<0.05 was considered to be significant.

HepG2 cells [2] = assay: Gentian Violet viability staining, 24-well plates; type: cell-based, human; conditions: 0–10 µM, 72 h
Procedure: (§1) To the other plate, equal molar concentrations of belinostat-G were added similarly. After 72 h, cells were stained with Gentian Violet paint (0.5% w/v; B.P.) and assessed for viability. […] After incubating 24 h, 100-µL drug solution or blank medium was added into each well of 96-well plates. 72 h later, 20 µL of MTS/PES was added into each well for incubation for 3 h. OD values are measured on wavelength 490 nm. Cell growth inhibition was calculated based on the […] with subtraction of background reading for only medium containing wells. The growth inhibition was defined as the percentage of the average […] from drug-treated wells over that from control wells without treatment. The experiment was done in triplicates. IC50 values were calculated using GraphPad PRISM software (GraphPad Software, Inc., La Jolla, CA, USA).

HepG2 cells [3] = assay: MTS growth inhibition assay; type: cell-based, human; conditions: Homo sapiens, HepG2, 72 h
Procedure: as §1

UGT1A3 = molecular target: T1, UGT1A3 (Homo sapiens, UniProt P35503); assay: UGT supersome screening; type: in vitro ADME; conditions: UGT1A3 supersomes, 10 µM belinostat, 37°C
T1 construct: purchased BD Gentest
Procedure: (§2) A typical incubation consisted of 50 µg of UGT, 2 mM UDPGA (UGT Reaction Solution A), 50 mM Tris-HCl, 8 mM MgCl2 and 0.025 mg/ml alamethicin (UGT Reaction Solution B) in a final incubation volume of 100 µL. Before the addition of substrate, the incubation mixture was prewarmed and equilibrated for 5 min at 37°C. […] The incubation mixture was vortexed and centrifuged (10,060 g) at 4°C for 10 min, and the supernatants were analyzed. Insect microsomes without UGT cDNA served as negative control. […] Incubations were performed as described above. Three independent experiments were performed for kinetic analysis.

UGT1A8 = molecular target: T2, UGT1A8 (Homo sapiens, UniProt Q9HAW9); assay: UGT supersome screening; type: in vitro ADME; conditions: UGT1A8 supersomes, 10 µM belinostat, 37°C
T2 construct: purchased BD Gentest
Procedure: as §2

UGT2B4 = molecular target: T3, UGT2B4 (Homo sapiens, UniProt P06133); assay: UGT supersome screening; type: in vitro ADME; conditions: UGT2B4 supersomes, 10 µM belinostat, 37°C
T3 construct: purchased BD Gentest
Procedure: as §2

UGT2B7 = molecular target: T4, UGT2B7 (Homo sapiens, UniProt P16662); assay: UGT supersome screening; type: in vitro ADME; conditions: UGT2B7 supersomes, 10 µM belinostat, 37°C
T4 construct: purchased BD Gentest
Procedure: as §2

[4] = tested on: human A2780 ovarian cancer cells; parameters: method as in Plumb et al., 2003; Investigator's Brochure, 2004; conditions: A2780 xenografts, 10 mg/kg/day IP once daily for 7 days; ref Plumb et al., 2003; Investigator's Brochure, 2004; cited from earlier work
[5] = tested on: cisplatin-resistant A2780/cp70; parameters: method as in Plumb et al., 2003; Investigator's Brochure, 2004; conditions: A2780/cp70 xenografts, 10 mg/kg/day IP once daily for 7 days; ref Plumb et al., 2003; Investigator's Brochure, 2004; cited from earlier work
[6] = tested on: HCT116 colon cancer cells; parameters: method as in Plumb et al., 2003; Investigator's Brochure, 2004; conditions: HCT116 xenografts, 40 mg/kg/day IP once daily for 7 days; ref Plumb et al., 2003; Investigator's Brochure, 2004; cited from earlier work
[7] = tested on: murine P388 leukemia cells; parameters: method as in Investigator's Brochure, 2004; conditions: P388 IP model, ref Investigator's Brochure, 2004, cited from earlier work
[8] = parameters: method as in Investigator's Brochure, 2004; conditions: dogs, ref Investigator's Brochure, 2004, cited from earlier work
[9] = parameters: method as in Investigator's Brochure, 2004; conditions: following 5 or 7 days of treatment; ref Investigator's Brochure, 2004; cited from earlier work
CYP3A4 = tested on: CYP3A4; parameters: method as in protocol pharmaceutical information; conditions: ref protocol pharmaceutical information; cited from earlier work
[10] = 600 mg/m^2, 30 min i.v. infusion
[11] = 900 mg/m^2, 30 min i.v. infusion
[12] = 1200 mg/m^2, 30 min i.v. infusion
[13] = 1400 mg/m^2, 30 min i.v. infusion

T3 sequence (P06133 24-528): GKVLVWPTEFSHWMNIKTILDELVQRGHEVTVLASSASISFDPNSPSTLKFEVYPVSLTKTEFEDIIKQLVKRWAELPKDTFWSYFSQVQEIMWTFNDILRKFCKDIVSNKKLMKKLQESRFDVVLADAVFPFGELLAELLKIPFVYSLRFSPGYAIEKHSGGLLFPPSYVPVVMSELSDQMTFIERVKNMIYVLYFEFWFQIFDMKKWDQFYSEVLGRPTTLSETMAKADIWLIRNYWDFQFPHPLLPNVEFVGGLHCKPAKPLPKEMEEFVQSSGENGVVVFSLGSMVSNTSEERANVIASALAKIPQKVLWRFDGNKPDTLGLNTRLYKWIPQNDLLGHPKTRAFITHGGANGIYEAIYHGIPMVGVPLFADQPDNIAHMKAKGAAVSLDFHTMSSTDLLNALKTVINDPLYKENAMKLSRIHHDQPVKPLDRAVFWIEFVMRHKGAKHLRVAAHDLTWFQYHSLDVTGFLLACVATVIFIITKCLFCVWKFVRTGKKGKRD
T2 sequence (Q9HAW9 26-530): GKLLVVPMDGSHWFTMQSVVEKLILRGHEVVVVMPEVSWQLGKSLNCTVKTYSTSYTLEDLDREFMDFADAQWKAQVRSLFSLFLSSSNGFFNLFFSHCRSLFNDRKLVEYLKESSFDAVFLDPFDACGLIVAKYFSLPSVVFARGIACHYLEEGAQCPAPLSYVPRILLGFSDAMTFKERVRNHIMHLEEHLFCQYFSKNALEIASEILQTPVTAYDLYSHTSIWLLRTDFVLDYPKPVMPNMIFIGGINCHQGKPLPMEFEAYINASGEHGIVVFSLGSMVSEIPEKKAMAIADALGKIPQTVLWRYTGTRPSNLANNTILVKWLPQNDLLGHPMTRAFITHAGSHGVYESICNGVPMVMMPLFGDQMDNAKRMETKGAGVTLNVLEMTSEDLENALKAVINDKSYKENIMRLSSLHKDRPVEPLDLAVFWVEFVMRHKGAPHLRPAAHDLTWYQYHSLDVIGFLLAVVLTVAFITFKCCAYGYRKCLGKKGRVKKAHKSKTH
T1 sequence (P35503 29-534): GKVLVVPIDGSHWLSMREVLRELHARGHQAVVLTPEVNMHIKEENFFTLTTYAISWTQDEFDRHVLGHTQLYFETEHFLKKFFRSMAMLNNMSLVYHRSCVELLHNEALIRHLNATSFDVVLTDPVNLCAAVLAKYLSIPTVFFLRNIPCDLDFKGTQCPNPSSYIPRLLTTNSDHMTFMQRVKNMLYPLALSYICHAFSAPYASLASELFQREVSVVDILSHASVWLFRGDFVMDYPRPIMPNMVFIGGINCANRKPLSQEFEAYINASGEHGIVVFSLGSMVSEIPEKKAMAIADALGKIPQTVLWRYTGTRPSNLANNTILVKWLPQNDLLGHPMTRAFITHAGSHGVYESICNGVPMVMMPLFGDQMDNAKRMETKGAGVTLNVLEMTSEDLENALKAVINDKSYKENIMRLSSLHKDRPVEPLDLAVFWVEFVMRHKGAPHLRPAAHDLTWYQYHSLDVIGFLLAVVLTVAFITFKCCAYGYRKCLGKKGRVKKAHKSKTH
T4 sequence (P16662 24-529): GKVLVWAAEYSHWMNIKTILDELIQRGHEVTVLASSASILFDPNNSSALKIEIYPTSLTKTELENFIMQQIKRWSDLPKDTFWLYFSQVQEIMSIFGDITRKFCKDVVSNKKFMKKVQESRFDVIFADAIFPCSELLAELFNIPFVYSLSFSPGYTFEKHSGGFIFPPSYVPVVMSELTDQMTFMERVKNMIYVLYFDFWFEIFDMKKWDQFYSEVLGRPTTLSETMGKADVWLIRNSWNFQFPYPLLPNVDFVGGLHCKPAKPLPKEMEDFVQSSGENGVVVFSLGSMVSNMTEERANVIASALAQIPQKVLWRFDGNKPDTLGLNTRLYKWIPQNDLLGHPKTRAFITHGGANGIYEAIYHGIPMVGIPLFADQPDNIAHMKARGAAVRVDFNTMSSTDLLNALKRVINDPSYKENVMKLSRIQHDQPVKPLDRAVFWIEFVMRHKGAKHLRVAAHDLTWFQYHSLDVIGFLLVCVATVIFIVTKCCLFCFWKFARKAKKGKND

## O=C(/C=C/c1cccc(S(=O)(=O)Nc2ccccc2)c1)NO [Belinostat, N-hydroxy-3-(phenylsulphamoylphenyl) acrylamide]
[1]; 1200 mg/m^2
  coefficient of variation of Clearance (CL): 29.0%
  AUC(0-t): 113 ± 37.1 µM·h
[1]; 1400 mg/m^2
  coefficient of variation of Clearance (CL): 30.6%
  AUC(0-t): 149 ± 46.2 µM·h
[1]; doses ranging from 600 to 1400 mg/m^2
  dose linearity of pharmacokinetics: linear pharmacokinetics
[1]; [10]
  Cmax: 88.2 ± 8.5 µM
  Tmax: 0.33 ± 0.14 h
  clearance: 877 mL/min
  half-life: 3.54 ± 0.34 h
  Vd: 268 ± 26.6 L
[1]; [11]
  Cmax: 98.5 ± 29.7 µM
  Tmax: 0.42 ± 0.14 h
  clearance: 1180 mL/min
  half-life: 4.07 ± 0.39 h
  Vd: 409 ± 76.7 L
[1]; [12]
  Cmax: 154 ± 50.4 µM
  Tmax: 0.64 ± 0.1 h
  clearance: 910 mL/min
  half-life: 4.14 ± 0.42 h
  Vd: 305 ± 186 L
[1]; [13]
  Cmax: 174 ± 48.3 µM
  Tmax: 0.4 ± 0.14 h
  clearance: 883 mL/min
  half-life: 3.54 ± 0.5 h
  Vd: 279 ± 121 L
[1]; 600 mg/m^2
  AUC(0-t): 61.3 ± 1.2 µM·h
[1]; 900 mg/m^2
  AUC(0-t): 70 ± 17.3 µM·h
HepG2 cells [2]
  cytotoxicity / cell viability (staining): significant dose-dependent cytotoxicity
HepG2 cells [3]
  IC50: 6.4 µM
UGT1A3
  metabolism by UGT isoform: less than 3%
UGT1A8
  metabolism by UGT isoform: less than 3%
UGT2B4
  metabolism by UGT isoform: less than 3%
UGT2B7
  metabolism by UGT isoform: less than 3%
[4]
  tumor growth: Delay of tumor growth was observed
[5]
  tumor growth: Delay of tumor growth was observed
[6]
  tumor growth: Growth inhibition was also observed
[7]; P<0.0001
  survival, 40 mg/kg/day × 5 days (from day 3) versus same total dose (200 mg/kg) as bolus on day 3: superior
[7]; P=0.009
  survival, 20 mg/kg/day for 10 days versus 40 mg/kg every two days (cumulative 200 mg/kg): better survival
[7]; p=0.49
  survival rates, every second day three times versus every day for 5 days (cumulative 270 mg/kg): no significant differences
[7]
  survival, daily dose (20, 40, or 80 mg/kg for 5 days) fractionated into two doses per day versus one daily dose: did not improve survival
[8]; 15 mg/kg and 35 mg/kg
  increases in the rate of respiration: not significantly different
[8]; high dose (35 mg/kg)
  heart rate: small transient increase in heart rate
[8]
  electrocardiogram waveform changes (decrease in RR, PR and QT intervals): not substantially different from the control group
[9]
  drug accumulation: no clear indication of drug accumulation
CYP3A4
  contribution of CYP3A4 to metabolism: contributes to PXD101 metabolism
